Publication PMC7714403 (JCI Insight, 2020)

Legend:
CHK1 = CHK1 (Homo sapiens, UniProt O14757); test: KiNativ, OCI cells live cell; type: cell-based; details: labeling site Lys2, peptide DIKPENLLLDER
NEK8 = NEK8 (Homo sapiens, UniProt Q86SG6); test: KiNativ, OCI cells live cell; type: cell-based; details: 2 h, labeling site Lys2, peptide […]
AURKB = biological target: T1, AURKB (Homo sapiens, UniProt Q96GD4); test: KdELECT binding assay
T1 construct: purchased Eurofins DiscoverX

[1] = test system: CaMK2a, CaMK2b, CaMK2d, CaMK2g; test: KiNativ, OCI cells live cell; type: cell-based, human; details: labeling site Lys2, peptide DLKPENLLLASK
CDK7 = CDK7 (Homo sapiens, UniProt P50613); test: KdELECT binding assay; parameters: purchased Eurofins DiscoverX
FLT3 D835Y = biological target: T2, FLT3 D835Y (Homo sapiens, UniProt P36888, D835Y); test: Kinase assay by Reaction Biology; type: biochemical; details: enzymatic kinase assay
T2 construct: purchased Eurofins DiscoverX

p38d, p38g = test: KiNativ, OCI cells live cell; type: cell-based, human; details: labeling site Lys2, peptide DLKPGNLAVNEDCELK
RSK2 domain1 = biological target: T3, RSK2 domain1 (Homo sapiens, UniProt P51812); test: KiNativ, OCI cells live cell; type: cell-based; details: 2 h
T3 construct: RSK2 domain1

MAP2K7 = MAP2K7 (Homo sapiens, UniProt O14733); test: KiNativ, OCI cells live cell; type: cell-based; details: labeling site Lys2, peptide DVKPSNILLDER
[2] = test system: murine FLT3-ITD+/– IDH2-R140Q+/– AML cells; test: Primary transplantation model of murine AML cells; type: in vivo, NSG mice
Protocol: Engraftment and growth of leukemic cells were monitored by noninvasive bioluminescence imaging in cell line xenograft models, as previously done ([47]). Details on the cell engraftment and dosing in mouse models are provided in the Supplemental Methods.
Luc+ or MOLM13-Res -Luc+ cells, 0.5 million OCI-AML3 -Luc+ cells, and 10,000 Ba/F3-FLT3-ITD/F691L-GFP+ cells. Weekly tumor engraftment of cell line xenograft models were assessed after injection of D-luciferin (150mg/kg i.p.; Gold Biotechnology, Inc, St. Louis, MO) on Xenogen IVIS-200 imaging system (Perkin Elmer, Waltham, MA) or GFP monitoring by peripheral blood via BD LSR II flow cytometer (BD Biosciences, San Jose, CA). Signal intensity was analyzed using Living Image Software (PerkinElmer) or FlowJo v10.0.08 software (FlowJo, LLC, Ashland, OR). Mice were randomized to treatment groups based on signal intensity and leukemia burden. Drug treatments were started on days 3, 7, or 13 after cell injection in OCI-AML3, MOLM13, and MOLM13-Res xenografts, respectively. In murine AML transplantation model, 1 million FLT3-ITD+/-/IDH2-R140Q+/- splenocytes (in house colony) were intravenously injected in male NSG mice. […]
At indicated time points, cells were collected and washed with PBS. CD11b expression was measured using anti-CD11b -APC antibody (BioLegend, San Diego, CA). […] CD11b expression and apoptosis were measured by BD LSR II flow cytometer. […]

MSK1 domain1 = biological target: T4, MSK1 domain1 (Homo sapiens, UniProt O75582); test: KiNativ, OCI cells live cell; type: cell-based; details: 2 h, labeling site Lys2, peptide […]
T4 construct: MSK1 domain1

CDK5 = CDK5 (Homo sapiens, UniProt Q00535); test: KiNativ, OCI cells live cell; type: cell-based; details: 2 h
TAO1, TAO3 = test: KiNativ, OCI cells live cell; type: cell-based, human; details: labeling site Lys2, peptide DIKAGNILLTEPGQVK
FYN, SRC, YES = test: KiNativ, OCI cells live cell; type: cell-based, human; details: labeling site Activation Loop, peptide QGAKFPIKWTAPEAALYGR
NDR2 = NDR2 (Homo sapiens, UniProt Q9Y2H1); test: KiNativ, OCI cells live cell; type: cell-based; details: 2 h
[3] = test system: MV4-11, MOLM13, and MOLM13-RES cells; test: MTT viability assay; type: cell-based; details: Homo sapiens; range over MV4-11, MOLM13, MOLM13-RES
Protocol: (§1) Drug treatments were carried out for 72 hours. Details are provided in the Supplemental Methods.

[4] = test system: Ba/F3 cells expressing FLT3 D835H/Y; test: MTT viability assay; type: cell-based; details: Mus musculus, BaF3, read-out: IC50 values, range
Protocol: as §1

JAK1 domain2 = biological target: T5, JAK1 domain2 (Homo sapiens, UniProt P23458); test: KiNativ, OCI cells live cell; type: cell-based
T5 construct: JAK1 domain2

MARK1, MARK2 = test: KiNativ, OCI cells live cell; type: cell-based, human; details: labeling site Lys1, peptide EVAVKIIDK

Sequence of NDR2 (Q9Y2H1 whole entry): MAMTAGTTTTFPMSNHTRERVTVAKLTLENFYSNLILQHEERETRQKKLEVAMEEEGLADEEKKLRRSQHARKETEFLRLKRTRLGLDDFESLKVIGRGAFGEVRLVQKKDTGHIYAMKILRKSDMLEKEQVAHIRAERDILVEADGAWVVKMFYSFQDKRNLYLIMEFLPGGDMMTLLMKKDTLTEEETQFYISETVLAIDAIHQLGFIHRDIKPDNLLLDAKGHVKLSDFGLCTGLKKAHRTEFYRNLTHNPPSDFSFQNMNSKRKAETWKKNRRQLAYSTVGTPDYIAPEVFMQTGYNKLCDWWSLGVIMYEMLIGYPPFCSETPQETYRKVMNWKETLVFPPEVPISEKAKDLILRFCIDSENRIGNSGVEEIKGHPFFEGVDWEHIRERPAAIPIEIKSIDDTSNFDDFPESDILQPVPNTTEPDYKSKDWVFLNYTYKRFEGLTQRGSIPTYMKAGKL
T5 sequence (P23458 whole entry, the tested form may be a part): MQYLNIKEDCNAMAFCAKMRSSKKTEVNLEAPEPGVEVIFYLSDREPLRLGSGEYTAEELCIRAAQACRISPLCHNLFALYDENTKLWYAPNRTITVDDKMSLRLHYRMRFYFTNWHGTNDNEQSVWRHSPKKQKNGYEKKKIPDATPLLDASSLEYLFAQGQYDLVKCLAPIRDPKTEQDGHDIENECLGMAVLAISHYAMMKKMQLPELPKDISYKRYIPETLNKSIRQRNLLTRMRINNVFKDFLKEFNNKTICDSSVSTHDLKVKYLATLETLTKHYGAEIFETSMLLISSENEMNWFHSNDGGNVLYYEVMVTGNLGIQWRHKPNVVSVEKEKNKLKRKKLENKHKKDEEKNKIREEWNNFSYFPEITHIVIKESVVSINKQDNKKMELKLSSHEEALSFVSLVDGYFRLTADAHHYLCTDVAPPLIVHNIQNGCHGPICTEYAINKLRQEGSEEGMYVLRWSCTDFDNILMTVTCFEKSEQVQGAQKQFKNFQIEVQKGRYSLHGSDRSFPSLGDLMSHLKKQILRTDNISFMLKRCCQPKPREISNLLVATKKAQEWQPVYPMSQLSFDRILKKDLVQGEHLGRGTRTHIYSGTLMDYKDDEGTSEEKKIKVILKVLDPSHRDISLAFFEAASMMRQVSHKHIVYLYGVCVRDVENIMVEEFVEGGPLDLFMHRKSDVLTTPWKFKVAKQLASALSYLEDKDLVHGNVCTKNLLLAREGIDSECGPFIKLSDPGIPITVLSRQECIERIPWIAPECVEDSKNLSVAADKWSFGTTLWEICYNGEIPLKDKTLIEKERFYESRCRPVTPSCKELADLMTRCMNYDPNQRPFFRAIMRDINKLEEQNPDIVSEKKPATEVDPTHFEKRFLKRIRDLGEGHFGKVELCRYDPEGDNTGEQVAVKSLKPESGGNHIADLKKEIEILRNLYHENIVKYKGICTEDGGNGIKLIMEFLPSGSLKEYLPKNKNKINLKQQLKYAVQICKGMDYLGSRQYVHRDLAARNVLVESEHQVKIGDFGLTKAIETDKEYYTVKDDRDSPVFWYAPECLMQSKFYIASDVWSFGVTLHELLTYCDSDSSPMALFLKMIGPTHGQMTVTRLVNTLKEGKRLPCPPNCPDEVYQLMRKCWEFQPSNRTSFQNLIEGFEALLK
Sequence of CDK5 (Q00535 whole entry): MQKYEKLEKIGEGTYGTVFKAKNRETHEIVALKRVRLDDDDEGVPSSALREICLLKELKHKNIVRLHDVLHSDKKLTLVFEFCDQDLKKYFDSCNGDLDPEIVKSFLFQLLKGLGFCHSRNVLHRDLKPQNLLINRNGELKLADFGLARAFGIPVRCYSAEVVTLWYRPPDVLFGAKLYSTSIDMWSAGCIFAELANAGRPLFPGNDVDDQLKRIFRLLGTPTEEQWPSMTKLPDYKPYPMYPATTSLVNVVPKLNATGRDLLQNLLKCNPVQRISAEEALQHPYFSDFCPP
T3 sequence (P51812 whole entry, the tested form may be a part): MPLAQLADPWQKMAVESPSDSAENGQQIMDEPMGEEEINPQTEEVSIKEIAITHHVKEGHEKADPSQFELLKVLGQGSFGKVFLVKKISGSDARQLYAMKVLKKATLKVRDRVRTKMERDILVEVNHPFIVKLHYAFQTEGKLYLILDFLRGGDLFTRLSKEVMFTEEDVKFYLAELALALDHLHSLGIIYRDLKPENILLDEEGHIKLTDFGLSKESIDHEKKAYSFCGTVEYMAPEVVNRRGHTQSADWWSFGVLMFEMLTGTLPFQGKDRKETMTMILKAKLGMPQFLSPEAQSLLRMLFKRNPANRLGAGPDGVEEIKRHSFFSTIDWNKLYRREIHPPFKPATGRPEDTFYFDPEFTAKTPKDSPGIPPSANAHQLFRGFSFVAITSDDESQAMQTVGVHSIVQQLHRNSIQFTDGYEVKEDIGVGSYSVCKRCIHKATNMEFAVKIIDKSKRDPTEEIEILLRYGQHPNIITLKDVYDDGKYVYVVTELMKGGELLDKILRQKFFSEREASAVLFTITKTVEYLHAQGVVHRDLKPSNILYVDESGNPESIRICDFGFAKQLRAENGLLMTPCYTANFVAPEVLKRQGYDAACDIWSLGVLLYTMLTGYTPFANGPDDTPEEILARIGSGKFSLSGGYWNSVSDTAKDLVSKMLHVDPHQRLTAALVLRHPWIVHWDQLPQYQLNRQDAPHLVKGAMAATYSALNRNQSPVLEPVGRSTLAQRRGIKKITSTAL
T1 sequence (Q96GD4 whole entry): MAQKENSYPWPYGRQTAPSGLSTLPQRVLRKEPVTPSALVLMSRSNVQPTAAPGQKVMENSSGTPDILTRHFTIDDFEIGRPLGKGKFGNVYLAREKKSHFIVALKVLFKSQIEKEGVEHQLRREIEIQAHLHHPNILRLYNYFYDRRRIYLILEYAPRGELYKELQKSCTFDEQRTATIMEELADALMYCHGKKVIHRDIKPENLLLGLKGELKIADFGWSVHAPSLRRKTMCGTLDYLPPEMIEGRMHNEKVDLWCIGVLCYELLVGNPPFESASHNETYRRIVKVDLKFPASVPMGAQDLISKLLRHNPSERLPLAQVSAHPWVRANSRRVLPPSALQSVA
T4 sequence (O75582 whole entry, the tested form may be a part): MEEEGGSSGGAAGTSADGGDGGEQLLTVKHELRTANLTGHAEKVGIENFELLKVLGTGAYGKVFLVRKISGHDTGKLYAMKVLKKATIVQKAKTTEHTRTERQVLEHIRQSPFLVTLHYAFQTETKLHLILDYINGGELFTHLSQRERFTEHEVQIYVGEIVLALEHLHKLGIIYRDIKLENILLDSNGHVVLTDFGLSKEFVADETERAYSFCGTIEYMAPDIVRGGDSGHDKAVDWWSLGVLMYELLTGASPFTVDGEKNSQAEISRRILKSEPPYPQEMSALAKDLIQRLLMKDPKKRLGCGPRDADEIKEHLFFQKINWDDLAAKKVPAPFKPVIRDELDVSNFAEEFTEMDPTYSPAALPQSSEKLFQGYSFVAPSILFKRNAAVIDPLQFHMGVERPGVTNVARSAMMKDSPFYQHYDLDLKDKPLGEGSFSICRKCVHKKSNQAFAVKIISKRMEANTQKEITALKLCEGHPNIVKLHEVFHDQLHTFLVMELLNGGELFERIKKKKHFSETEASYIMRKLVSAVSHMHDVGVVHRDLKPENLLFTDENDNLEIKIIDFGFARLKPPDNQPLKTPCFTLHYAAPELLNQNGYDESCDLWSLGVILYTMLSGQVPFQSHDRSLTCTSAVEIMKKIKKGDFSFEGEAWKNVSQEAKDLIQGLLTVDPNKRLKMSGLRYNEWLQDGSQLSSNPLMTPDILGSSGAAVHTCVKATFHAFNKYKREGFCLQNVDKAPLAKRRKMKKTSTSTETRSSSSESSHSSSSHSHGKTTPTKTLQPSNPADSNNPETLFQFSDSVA
Sequence of CHK1 (O14757 whole entry): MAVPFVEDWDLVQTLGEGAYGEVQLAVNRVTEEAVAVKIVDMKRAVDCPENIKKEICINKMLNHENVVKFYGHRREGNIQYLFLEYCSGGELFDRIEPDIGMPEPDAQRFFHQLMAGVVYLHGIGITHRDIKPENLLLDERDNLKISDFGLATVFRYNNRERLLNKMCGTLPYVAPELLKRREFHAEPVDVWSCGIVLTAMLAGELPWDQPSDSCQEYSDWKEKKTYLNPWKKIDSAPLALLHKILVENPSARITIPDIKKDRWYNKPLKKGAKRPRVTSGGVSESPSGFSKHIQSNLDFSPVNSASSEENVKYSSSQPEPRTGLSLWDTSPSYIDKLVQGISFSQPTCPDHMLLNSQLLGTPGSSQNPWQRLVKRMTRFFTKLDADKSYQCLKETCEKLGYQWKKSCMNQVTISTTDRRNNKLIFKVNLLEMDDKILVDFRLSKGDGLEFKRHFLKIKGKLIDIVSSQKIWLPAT
Sequence of NEK8 (Q86SG6 whole entry): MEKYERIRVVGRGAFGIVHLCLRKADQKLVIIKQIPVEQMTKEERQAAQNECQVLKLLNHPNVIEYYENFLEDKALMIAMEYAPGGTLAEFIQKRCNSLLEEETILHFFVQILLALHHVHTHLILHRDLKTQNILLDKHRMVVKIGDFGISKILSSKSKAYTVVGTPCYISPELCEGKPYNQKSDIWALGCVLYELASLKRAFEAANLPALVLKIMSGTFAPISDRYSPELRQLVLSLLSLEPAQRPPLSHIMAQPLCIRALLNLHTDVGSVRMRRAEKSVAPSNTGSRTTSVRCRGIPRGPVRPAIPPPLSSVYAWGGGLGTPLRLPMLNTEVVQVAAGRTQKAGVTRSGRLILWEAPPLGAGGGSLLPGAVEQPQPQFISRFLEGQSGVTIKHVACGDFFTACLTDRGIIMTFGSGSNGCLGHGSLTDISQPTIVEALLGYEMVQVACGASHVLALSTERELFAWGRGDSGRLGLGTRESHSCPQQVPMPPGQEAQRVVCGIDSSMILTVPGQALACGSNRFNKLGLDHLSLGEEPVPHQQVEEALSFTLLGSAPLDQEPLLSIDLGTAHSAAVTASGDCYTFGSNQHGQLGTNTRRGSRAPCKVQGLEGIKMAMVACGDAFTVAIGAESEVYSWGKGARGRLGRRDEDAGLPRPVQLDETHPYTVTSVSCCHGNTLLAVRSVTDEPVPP

CN1CCN(Cc2ccc(Nc3ncc(Cl)c(Nc4ccccc4S(=O)(=O)N(C)C)n3)cc2)CC1 [TP-0903] showed an Inhibition (CHK1) of 29.7%, an inhibition at 0.1 µM (NEK8) of -6.8% and a Kd (AURKB) of under 5 nM. The Inhibition [1] was 17.4%, the Kd (CDK7) was under 5 nM and the IC50 (FLT3 D835Y) was 0.12 nM. It also gave an Inhibition (p38d, p38g) of -17.4%, an inhibition at 0.1 µM (RSK2 domain1; labeling site Activation Loop, peptide LTDFGLSKESIDHEKK) of 52.4% and an inhibition at 0.1 µM (RSK2 domain1; labeling site Lys1, peptide QLYAMKVLK) of 48.2%. For the same molecule, the Inhibition (MAP2K7) was -6.6%, the “Spleen weight at study endpoint (mean ± SD)” value ([2]; 40 mg/kg once daily) was 50 ± 13 mg and the “Survival prolonged compared with vehicle” value ([2]; 40 mg/kg once daily up to 6 weeks) was 9 days. The inhibition at 0.1 µM (MSK1 domain1) was 8.3%, the inhibition at 0.1 µM (CDK5; labeling site Lys1, peptide NRETHEIVALKR) was 57% and the inhibition at 0.1 µM (CDK5; labeling site Lys2, peptide DLKPQNLLINR) was 55.5%. The Inhibition (TAO1, TAO3) was 73.9%, the Inhibition (FYN, SRC, YES) was 16.0% and the inhibition at 0.1 µM (NDR2; labeling site Lys1, peptide DTGHIYAMKILR) was 21.5%. For the same molecule, the inhibition at 0.1 µM (NDR2; labeling site Lys2, peptide DIKPDNLLLDAK) was -7%, the IC50 [3] was 16 to 21 nM and the IC50 [4] was 16 to 22 nM. For the same molecule, the Inhibition (JAK1 domain2; labeling site Activation Loop, peptide IGDFGLTKAIETDKEYYTVK) was -56.4%, the Inhibition (JAK1 domain2; labeling site Lys1, peptide YDPEGDNTGEQVAVKSLKPESGGNHIADLKK) was -85.5% and the Inhibition (MARK1, MARK2) was 26.6%.
